# Test results published in US9163012B2, “Carbamate and urea inhibitors of 11β-hydroxysteroid dehydrogenase 1” (Vitae Pharmaceuticals, Inc., priority 2009, dated 2015).
# Where “and” joins values, the source holds several entries; their conditions need not be identical. Equal values may be shown once. Read-outs that look alike come from different tables or passages of the source.
# Biological target: 11β-HSD1 (Homo sapiens (Human), UniProt P28845)
# Assay: Biological Test Example 1: inhibition of a microsomal preparation of 11β-HSD1 (SPA)
# Assay type: biochemical
# Conditions: for Average % inhibition at 100 nM / inhibition at 0.1 µM: 100 nM compound; for inhibition at 0.1 µM: read-out: Average % inhibition at 100 nM, Biological Test Example 1
# Protocol: All reactions were carried out at rt in 96 well clear flexible PET Microbeta plates (PerkinElmer). […] After a 10 minute pre-incubation, 50 μL of enzyme solution containing microsomes isolated from CHO cells overexpressing human 11-HSD1 (10-20 μg/ml of total protein) was added, and the plates were incubated for 90 minutes at rt. The reaction was stopped by adding 50 μl of the SPA beads suspension containing 10 μM […], 5 mg/ml protein A coated YSi SPA beads (GE Healthcare) and 3.3 μg/ml of anti-cortisol antibody (East Coast Biologics) in Superblock buffer (Bio-Rad). The plates were shaken for 120 minutes at rt, and the SPA signal corresponding to [^3H]cortisol was measured on a Microbeta plate reader.
# [1] = Biological Test Example 1, microsomes from CHO cells overexpressing human 11β-HSD1, read-out: IC50 Range
# [2] = Biological Test Example 1, read-out: IC50
# Chain of 11β-HSD1 (P28845 whole entry): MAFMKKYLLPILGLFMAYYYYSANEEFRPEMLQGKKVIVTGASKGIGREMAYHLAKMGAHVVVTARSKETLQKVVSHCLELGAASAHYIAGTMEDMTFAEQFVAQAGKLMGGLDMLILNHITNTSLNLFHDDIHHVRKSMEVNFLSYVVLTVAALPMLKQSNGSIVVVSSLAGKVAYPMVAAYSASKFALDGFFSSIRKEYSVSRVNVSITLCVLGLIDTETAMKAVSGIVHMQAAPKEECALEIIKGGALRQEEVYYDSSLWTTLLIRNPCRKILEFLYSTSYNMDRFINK
SMILES,Average % inhibition at 100 nM (Biological Test Example 1) [%],IC50 [1] [nM],IC50 [2],inhibition at 0.1 µM [%],further results
"Cc1cc(C)nc(C2CCN(C(=O)OC3C4CC5CC3CC(C(N)=O)(C5)C4)C2)n1 (single isomer, unassigned) [EXAMPLE 43 Isomer 1, trans-1-carbamoyl-4-adamantyl 3-(4,6-dimethylpyrimidin-2-yl)pyrrolidine-1-carboxylate]",86.5,< 100,5.72 nM,,
"NC(=O)[C@]12CC3CC(C1)[C@@H](OC(=O)N1CC[C@@H](n4c(=O)[nH]c5cc(Cl)cnc54)C1)C(C3)C2 [EXAMPLE 69, (R)-trans-1-carbamoyl-4-adamantyl 3-(6-chloro-2-oxo-1H-imidazo[4,5-b]pyridin-3(2H)-yl)pyrrolidine-1-carboxylate]",,< 100,1.04 nM,97,
"O=C(OC1C2CC3CC(C2)CC1C3)N1CCC(CO)(c2ccccc2)CC1 (centres unmarked) [EXAMPLE 30, 2-adamantyl 4-(hydroxymethyl)-4-phenylpiperidine-1-carboxylate]",,< 100,13.2 nM and 4.44 nM,87.4,"inhibition at 0.063 µM (Biological Test Example 1, Dose = 63 nM): 80.1%"
"Cn1c(C2CCCN2C(=O)OC2C3CC4CC2CC(C(N)=O)(C4)C3)nc2ccccc21 (centres unmarked) [EXAMPLE 32, (1-carbamoyl-4-adamantyl) 2-(1-methyl-1H-benzo[d]imidazol-2-yl)pyrrolidine-1-carboxylate]",,< 100,1.08 nM,94.7,
"O=C(OC1C2CC3CC1CC(C(=O)O)(C3)C2)N1CCC(c2ncc(Cl)cn2)C1 (single isomer, unassigned) [EXAMPLE 46 Isomer 1, trans-4-((3-(5-chloropyrimidin-2-yl)pyrrolidine-1-carbonyl)oxy)adamantane-1-carboxylic acid]",22.4,> 100,> 100 nM,,
"N#Cc1ccc2[nH]c(=O)n([C@@H]3CCN(C(=O)O[C@H]4C5CC6CC4C[C@](C(N)=O)(C6)C5)C3)c2c1 [EXAMPLE 65, (R)-trans-1-carbamoyl-4-adamantyl 3-(6-cyano-2-oxo-2,3-dihydro-1H-benzo[d]imidazol-1-yl)pyrrolidine-1-carboxylate]",,< 100,33.1 nM,69,
"Cc1csc(C2CCN(C(=O)OC3C4CC5CC3CC(C(N)=O)(C5)C4)C2)n1 (single isomer, unassigned) [EXAMPLE 42 Isomer 1, transl-carbamoyl-4-adamantyl 3-(4-methylthiazol-2-yl)pyrrolidine-1-carboxylate]",91.8,,,,
"NC(=O)C12CC3CC(C1)C(OC(=O)N1CCC(c4nccc(C(F)(F)F)n4)C1)C(C3)C2 (single isomer, unassigned) [EXAMPLE 48 Isomer 2, cis-1-carbamoyl-4-adamantyl 3-(4-(trifluoromethyl)pyrimidin-2-yl)pyrrolidine-1-carboxylate]",16.1,,,,
"NC(=O)[C@]12CC3CC(C1)[C@@H](OC(=O)N1CC[C@H](n4c(=O)n(CCO)c5cc(F)ccc54)C1)C(C3)C2 [EXAMPLE 73, (S)-trans-1-carbamoyl-4-adamantyl 3-(5-fluoro-3-(2-hydroxyethyl)-2-oxo-2,3-dihydro-1H-benzo[d]imidazol-1-yl)pyrrolidine-1-carboxylate]",,< 100,4.52 nM,93,
"COc1cnc(C2CCN(C(=O)OC3C4CC5CC3CC(C(N)=O)(C5)C4)C2)nc1 (single isomer, unassigned) [EXAMPLE 44 Isomer 1, 1-carbamoyl-4-adamantyl 3-(5-methoxypyrimidin-2-yl)pyrrolidine-1-carboxylate]",95.2,,,,
"Cc1cc(C2CCN(C(=O)OC3C4CC5CC3CC(C(N)=O)(C5)C4)C2)nn1C (single isomer, unassigned) [EXAMPLE 40 Isomer 2, 1-carbamoyl-4-adamantyl 3-(1,5-dimethyl-1H-pyrazol-3-yl)pyrrolidine-1-carboxylate]",5.2,> 100,> 100 nM,,
"NC(=O)[C@]12CC3CC(C1)[C@@H](OC(=O)N1CC[C@@H](Oc4ccc5nccn5n4)C1)C(C3)C2 [EXAMPLE 3, (R)-(trans-(1-carbamoyl-4-adamantyl)) 3-(imidazo[1,2-b]pyridazin-6-yloxy)pyrrolidine-1-carboxylate]",,< 100,6.39 nM,92.1,
"NC(=O)[C@]12CC3CC(C1)[C@@H](OC(=O)N1CCC[C@@H]1c1nc(-c4cc[nH]c(=O)c4)cs1)C(C3)C2 [EXAMPLE 54, (R)-trans-1-carbamoyl-4-adamantyl 2-(4-(2-oxo-1,2-dihydropyridin-4-yl)thiazol-2-yl)pyrrolidine-1-carboxylate]",,< 100,2.67 nM,95.4,
"COC(=O)Cn1c(=O)n([C@H]2CCN(C(=O)O[C@H]3C4CC5CC3C[C@](C(N)=O)(C5)C4)C2)c2ccc(F)cc21 [EXAMPLE 72, (S)-trans-1-carbamoyl-4-adamantyl 3-(5-fluoro-3-(2-methoxy-2-oxoethyl)-2-oxo-2,3-dihydro-1H-benzo[d]imidazol-1-yl)pyrrolidine-1-carboxylate]",,< 100,7.11 nM,84.9,
"NC(=O)[C@]12CC3CC(C1)[C@@H](OC(=O)N1CC[C@H](n4c(=O)[nH]c5cccc(Cl)c54)C1)C(C3)C2 [EXAMPLE 67, (S)-trans-1-carbamoyl-4-adamantyl 3-(7-chloro-2-oxo-2,3-dihydro-1H-benzo[d]imidazol-1-yl)pyrrolidine-1-carboxylate]",,< 100,0.68 nM,97.7,
"NC(=O)[C@]12CC3CC(C1)[C@@H](OC(=O)N1CCC(c4ncc(Cl)cn4)C1)C(C3)C2 (single isomer, unassigned) [EXAMPLE 26, trans-(1-carbamoyl-4-adamantyl) 3-(5-chloropyrimidin-2-yl)pyrrolidine-1-carboxylate]",94.5,< 100,1.12 nM,,
"Cc1ccc(C2CCN(C(=O)OC3C4CC5CC3CC(C(N)=O)(C5)C4)C2)nc1 (single isomer, unassigned) [EXAMPLE 35 Isomer 2, cis-1-carbamoyl-4-adamantyl 3-(5-methylpyridin-2-yl)pyrrolidine-1-carboxylate]",8.1,> 100,> 100 nM,,
"Cc1cnc(C2CCN(C(=O)OC3C4CC5CC3CC(C(N)=O)(C5)C4)C2)nc1 (single isomer, unassigned) [EXAMPLE 39 Isomer 2, 1-carbamoyl-4-adamantyl 3-(5-methylpyrimidin-2-yl)pyrrolidine-1-carboxylate]",1.8,> 100,> 100 nM,,
"COC(=O)C1(c2ccccc2)CCN(C(=O)OC2C3CC4CC(C3)CC2C4)CC1 (centres unmarked) [EXAMPLE 11, 1-(2-adamantyl) 4-methyl 4-phenylpiperidine-1,4-dicarboxylate]",,,,,IC50 (IC50 Range): < 100 nM; inhibition at 0.111 µM (read-out: Average % inhibition at 111 nM): 86.3%; IC50 (read-out: IC50): 6.65 nM
"Cc1noc(C2CCN(C(=O)O[C@H]3C4CC5CC3C[C@](C(N)=O)(C5)C4)C2)n1 (stereo partly drawn) [EXAMPLE 23, trans-1-carbamoyl-4-adamantyl 3-(3-methyl-1,2,4-oxadiazol-5-yl)pyrrolidine-1-carboxylate]",,< 100,17.6 nM,79.3,
"NC(=O)[C@]12CC3CC(C1)[C@@H](OC(=O)N1CCC(c4ncc(Cl)cn4)C1)C(C3)C2 (single isomer, unassigned) [EXAMPLE 26 Isomer 2, cis-(1-carbamoyl-4-adamantyl) 3-(5-chloropyrimidin-2-yl)pyrrolidine-1-carboxylate]",26.3,> 100,> 100 nM,,
"O=C(OC1C2CC3CC1CC(O)(C3)C2)N1CCC(c2cc[n+]([O-])cc2)C1 (centres unmarked) [EXAMPLE 22, 4-(1-((1-hydroxy-4-adamantyloxy)carbonyl)pyrrolidin-3-yl)pyridine 1-oxide]",,> 100,100 nM,3.7,
"O=C(OC1C2CC3CC(C2)CC1C3)N1CCC[C@@H]1c1nc(-c2ccncc2)cs1 (stereo partly drawn) [EXAMPLE 50, (R)-2-adamantyl 2-(4-(pyridin-4-yl)thiazol-2-yl)pyrrolidine-1-carboxylate]",,< 100,0.91 nM,98.2,
"O=C(OC1C2CC3CC(C2)CC1C3)N1CCC(c2ncc(Cl)cn2)C1 (centres unmarked) [EXAMPLE 34, 2-adamantyl 3-(5-chloropyrimidin-2-yl)pyrrolidine-1-carboxylate]",,< 100,0.52 nM,96.8,
"O=C(OC1C2CC3CC1CC(O)(C3)C2)N1CCC(c2ncc(Cl)cn2)C1 (single isomer, unassigned) [EXAMPLE 24 Isomer 1, trans-1-hydroxy-4-adamantyl 3-(5-chloropyrimidin-2-yl)pyrrolidine-1-carboxylate]",98.6,,,,
"NC(=O)c1cnc(C2CCN(C(=O)OC3C4CC5CC3CC(C(N)=O)(C5)C4)C2)nc1 (single isomer, unassigned) [EXAMPLE 47 Isomer 1, 1-carbamoyl-4-adamantyl 3-(5-carbamoylpyrimidin-2-yl)pyrrolidine-1-carboxylate]",6.1,> 100,> 100 nM,,
"NC(=O)[C@]12CC3CC(C1)[C@@H](OC(=O)N1CC[C@@H](n4c(=O)[nH]c5cccc(Cl)c54)C1)C(C3)C2 [EXAMPLE 68, (R)-trans-1-carbamoyl-4-adamantyl 3-(7-chloro-2-oxo-2,3-dihydro-1H-benzo[d]imidazol-1-yl)pyrrolidine-1-carboxylate]",,< 100,0.46 nM,96.9,
